The numbers were not newly measured in patent US6045800A, “Composition for preventing or treating periodontal diseases comprising extract from Achyranthis radix or Ulmus cortex” (LG Chemical Ltd., priority 1997, dated 2000), which cites them from elsewhere.

The test system of this series is periodontal diseases.

On to `CN(C)C1C(=O)C(C(N)=O)=C(O)C2(O)C(=O)C3=C(O)c4c(O)cccc4C(C)(O)C3CC12` (stereo not drawn) [tetracycline], for which, where the note is “1000 mg/day for 5 to 7 days”, the “clinical effect on the symptom of the disease” value is “relieved to a clinically normal state”. The “clinical effect of long term administration” value (daily dose of 1000 mg for 2 weeks, then 250 mg once daily for 48 weeks) is listed as “gingivitis has clinically decreased”. For the same molecule, where the note is “use of the antibiotic”, the side effects entry is on record as “vomiting, a complaint for the ache of gastrointestinal tracts, diarrhea, dental coloring”.
